Test results reported in publication PMC6385854, “Structural insights reveal a recognition feature for tailoring hydrocarbon stapled-peptides against the eukaryotic translation initiation factor 4E protein” (Chemical Science, 2019).
Where two headings read alike, the source gives them in different places. Numbered stars: 1 amine (or outer) side, 2 acyl side, 3 side chain; on linkers, the order of the positions; unused ones are H or OH. Bridge positions count the residues as written; N and C are the ends. Square brackets hold non-standard residues; d marks the D form. Peptide text beside a SMILES is read from it. ξ: configuration not given here. ξαMeNle(6-ylidene) = CC(CCCC=[*:3])(N[*:1])C(=O)[*:2]; R5 = C=CCCC[C@@](C)(N)C(=O)O; S5 = C=CCCC[C@](C)(N)C(=O)O

Legend:
[1] = molecular target: T1, Human recombinant eIF4E protein (Homo sapiens, UniProt P06730); assay: Surface plasmon resonance binding of stapled-peptides to immobilized eIF4E; conditions: SPR; for kon: eIF4E (His tag or w/o tag) amine-coupled on CM5 chip, saturated with m7GTP, peptides 3 μM to 1.372 nM, 60 s injection, 120 s dissociation
T1 construct: V28-V217; made in house; host or cells: Escherichia coli BL21 (DE3)
T1 sequence (P06730 28-217): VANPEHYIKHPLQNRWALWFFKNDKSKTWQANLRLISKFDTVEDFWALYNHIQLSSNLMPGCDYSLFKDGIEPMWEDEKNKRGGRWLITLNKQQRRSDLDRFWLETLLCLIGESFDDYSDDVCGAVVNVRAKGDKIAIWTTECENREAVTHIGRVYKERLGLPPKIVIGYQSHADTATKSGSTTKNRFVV
Protocol: Human recombinant eIF4E protein with His tag (eIF4E-His) and without tag (eIF4E w/o tag) were separately immobilized on a CM5 sensor chip through amine coupling using the same protocol. Each flow cell of a CM5 sensor chip was first activated by a 7 min injection (10 μl min^–1) of freshly prepared 1 : 1 50 mM NHS : 200 mM EDC. Diluted eIF4E in NaAc (pH 5.0), with m^7GTP present in ≥2 : 1 ratio to saturate eIF4E, was injected over the sensor chip surface at a flow rate of 10 μl min^–1. The remaining active coupling sites were blocked with a 7 min injection of 1 M ethanolamine at 10 μl min^–1. The immobilization level is ∼2500 RU for eIF4E w/o tag and ∼5000 RU for eIF4E-His separately. Running buffer for immobilization was HBS-EP+ (10 mM HEPES, 150 mM NaCl, 3 mM EDTA, 0.05% surfactant P20).
Before measurement, the system was primed with assay running buffer HBS-EP+ (10 mM HEPES, 150 mM NaCl, 3 mM EDTA, 0.05% surfactant P20), with 1 mM DTT and 3% DMSO. Peptides were prepared by 3-fold dilution from high concentration to low concentration (3 μM to 1.372 nM). Peptides at increasing concentrations were injected over the chip surface for 60 s. The exposure was followed by a dissociation phase of 120 s. The flow rate was 30 μl min^–1. Surface regeneration was done using 2 M NaCl 30 s at 30 μl min^–1. Each reaction cycle ended with 50% DMSO extra wash. The solvent correction curve was setup by adding varying amounts of 100% DMSO to 1.03× running buffer to generate a range of DMSO solutions (2.000%, 2.286%, 2.571%, 2.857%, 3.143%, 3.429%, 3.714% and 4.000% respectively). After removing reference (blank buffer) signal and adding solvent correction, kinetics and/or steady-state parameters were calculated with Biacore T200 evaluation software ver. 3.0.

eIF4E = conditions: small molecule inhibitor of the eIF4E/eIF4G interaction; cited from earlier work
Source text: We have previously used structure-based rational design and optimization strategies to develop the first generation of hydrocarbon stapled-peptides against eIF4E.[20] These are the only compounds currently reported in the literature that are able to bind to the protein-binding interface of eIF4E with nanomolar affinity. […] Moreover, it was recently shown that 4EGI-1 binds to a non-canonical site on eIF4E and allosterically regulates the binding prop ... || The previously optimized 12mer stapled-peptide (sTIP-04: ^1KKRYSR*QLL*L^12)[20] (Fig. 1) was used as a template for the derivation of two different i, i + 4 hydrocarbon stapled-peptides: (i) (sTIP-05: ^1KKRYSR*QLL*F^12) with an L12F substitution at the C-terminus and, (ii) (sTIP-06: ^1RIIYSR*QLL*L^12) with an “RII^3” substitution at the N-terminus, based on the 4EBP protein epitope.[12] These derivatives were designed to incorporate different chemical features with the anticipation to induce favorable cellular activity. Both peptides were synthesized and their binding affinity for eIF4E was de ...

[2] = Biacore T200, HBS-EP+ with 1 mM DTT, 3% DMSO, mean ± SEM from at-least two independent experiments, SEM
[3] = Biacore T200, eIF4E on CM5 chip, m7GTP, HBS-EP+ with 1 mM DTT, 3% DMSO, mean ± SEM from at-least two independent experiments, SEM
[4] = Biacore T200, eIF4E on CM5 chip, m7GTP, HBS-EP+ with 1 mM DTT, 3% DMSO, mean ± SEM from at-least two independent experiments, read-out: K D, binding affinity (kinetic KD) measured as a ratio of koff/kon
[5] = mean ± SEM from at-least two independent experiments
[6] = mean ± SEM from at-least two independent experiments, SEM
[7] = Biacore T200, HBS-EP+ with 1 mM DTT, 3% DMSO, mean ± SEM from at-least two independent experiments, SEM, read-out: k on
[8] = Biacore T200, eIF4E on CM5 chip, m7GTP, HBS-EP+ with 1 mM DTT, 3% DMSO, mean ± SEM from at-least two independent experiments, SEM, read-out: K D, binding affinity (kinetic KD) measured as a ratio of koff/kon
[9] = Biacore T200, eIF4E on CM5 chip, m7GTP, HBS-EP+ with 1 mM DTT, 3% DMSO, mean ± SEM from at-least two independent experiments, SEM, read-out: k off

Molecule | kon [1, 2] | K D, binding affinity (kinetic KD) measured as a ratio of koff/kon [1, 3] | koff [1, 3] | RT, Residence Time measured as 1/koff [1, 5] | RT, Residence Time measured as 1/koff [1, 6] | kon [1, 7] | Kd [1, 8] | koff [1, 9] | also measured
Ac-RIIYSR*QLL*L-NH2 (sidechain bridge or staple) [sTIP-06] | 2.7 ± 0.7 × 10^8 M^–1 s^–1 | 0.8 ± 0.1 nM | 2.2 ± 0.8 × 10^–1 s^–1 | 6 s | 6.0 ± 2.4 s |  |  |  | Kd [1, 4]: 0.8 nM
Ac-RIIYSR*QLL*L&-NH2 (sidechain bridge or staple) [sTIP-08, 13mer stapled-peptide, sTIP-06 extended with Lys(ButPhI)] | 6.2 ± 0.2 × 10^5 M^–1 s^–1 | 45.2 ± 0.6 nM | 2.8 ± 0.1 × 10^–2 s^–1 |  | 35.5 ± 1.3 s |  |  |  | 
O=C(O)C(Cc1ccccc1[N+](=O)[O-])=NNc1nc(-c2ccc(Cl)c(Cl)c2)cs1 (mixture of isomers) [Peptide 4EGI-1, 4EGI-1] |  |  |  |  |  |  |  |  | Affinity for eIF4E (eIF4E): micromolar range
CC(=O)N[C@@H](CCCCN)C(=O)N[C@@H](CCCCN)C(=O)N[C@@H](CCCNC(=N)N)C(=O)N[C@@H](Cc1ccc(O)cc1)C(=O)N[C@@H](CO)C(=O)N[C@@H](CCCNC(=N)N)C(=O)N[C@@]1(C)CCCC=CCCC[C@@](C)(C(=O)N[C@@H](Cc2ccccc2)C(=O)N[C@@H](Cc2c[nH]c3ccccc23)C(N)=O)NC(=O)[C@H](CC(C)C)NC(=O)[C@H](CC(C)C)NC(=O)[C@H](CCC(N)=O)NC1=O [sTIP-07] (Ac-KKRYSR[S5]QLL[S5]FW-NH2; staple 7-11) |  |  |  |  | 36.3 ± 1.0 s | 650000 ± 3e+09 M⁻¹ s⁻¹ | 42.5 ± 0.5 nM | 0.028 ± 1e-05 s⁻¹ | 
CC(=O)N[C@@H](CCCCN)C(=O)N[C@@H](CCCCN)C(=O)N[C@@H](CCCNC(=N)N)C(=O)N[C@@H](Cc1ccc(O)cc1)C(=O)N[C@@H](CO)C(=O)N[C@@H](CCCNC(=N)N)C(=O)N[C@]1(C)CCCC=CCCC[C@](C)(C(=O)N[C@@H](Cc2ccccc2)C(N)=O)NC(=O)[C@H](CC(C)C)NC(=O)[C@H](CC(C)C)NC(=O)[C@H](CCC(N)=O)NC1=O [sTIP-05] (Ac-KKRYSR[R5]QLL[R5]F-NH2; staple 7-11) |  |  |  | 10 s | 10.8 ± 0.9 s | 1.5e+07 M⁻¹ s⁻¹ | 6.6 ± 0.7 nM | 0.094 ± 8e-05 s⁻¹ | 
CC(=O)N[C@@H](Cc1ccc(O)cc1)C(=O)N[C@@H](CO)C(=O)N[C@@H](CCCNC(=N)N)C(=O)NC1(C)CCCC=CCCCC(C)(C(=O)N[C@@H](Cc2ccccc2)C(N)=O)NC(=O)[C@H](CC(C)C)NC(=O)[C@H](CC(C)C)NC(=O)[C@H](CCC(N)=O)NC1=O (some centres unmarked) [sTIP-13] (Ac-YSR[ξαMeNle(6-ylidene)]QLL[ξαMeNle(6-ylidene)]F-NH2; staple 4-8) |  |  |  |  |  |  |  |  | Kd ([1]; Binding affinity estimated (micromolar range), range over two independent experiments): 4000 to 36000 nM; Kd ([1]; sensogram traces Fig. S2 E, F, experiment 1, read-out: Binding affinity estimated, first of two independent SPR experiments): 4000 nM; Kd ([1]; sensogram traces Fig. S2 E, F, experiment 2, read-out: Binding affinity estimated, second of two independent SPR experiments): 36000 nM
O=C(O)c1ccc(N2C(=O)/C(=C\c3ccc(-c4ccc([N+](=O)[O-])cc4)o3)C=C2c2ccccc2)cc1 [Peptide 4E1RCat, 4E1RCat] |  |  |  |  |  |  |  |  | Affinity for eIF4E (eIF4E): micromolar range

Now from value to molecule, other results behind:

kon [1, 2] | K D, binding affinity (kinetic KD) measured as a ratio of koff/kon [1, 3] | koff [1, 3] | RT, Residence Time measured as 1/koff [1, 5] | RT, Residence Time measured as 1/koff [1, 6] | kon [1, 7] | Kd [1, 8] | koff [1, 9] | Molecule | also measured
 |  |  |  | 18.3 ± 4.5 s | 340000 ± 1.6e+10 M⁻¹ s⁻¹ | 195 ± 49.7 nM | 0.058 ± 0.00014 s⁻¹ | CC(=O)N[C@@H](CCCNC(=N)N)C(=O)N[C@@H](Cc1ccc(O)cc1)C(=O)N[C@@H](CO)C(=O)N[C@@H](CCCNC(=N)N)C(=O)N[C@@]1(C)CCCC=CCCC[C@@](C)(C(=O)N[C@@H](CC(C)C)C(=O)N[C@@H](Cc2ccccc2)C(=O)N[C@@H](CCCNC(=N)N)C(N)=O)NC(=O)[C@H](CC(C)C)NC(=O)[C@H](CC(C)C)NC(=O)[C@H](CCC(N)=O)NC1=O [sTIP-14] (Ac-RYSR[S5]QLL[S5]LFR-NH2; staple 5-9) | Improvement in KD over sTIP-12 ([1]; relative to sTIP-12): 2 fold; Reduction in rate of dissociation (koff) over sTIP-12 ([1]; relative to sTIP-12): 2 fold
 |  |  | 68 s | 68.8 ± 13.8 s | 2.2e+06 ± 3e+11 M⁻¹ s⁻¹ | 7.8 ± 1.9 nM | 0.016 ± 3e-05 s⁻¹ | CC(=O)N[C@@H](CCCCN)C(=O)N[C@@H](CCCCN)C(=O)N[C@@H](CCCNC(=N)N)C(=O)N[C@@H](Cc1ccc(O)cc1)C(=O)N[C@@H](CO)C(=O)N[C@@H](CCCNC(=N)N)C(=O)N[C@@]1(C)CCCC=CCCC[C@@](C)(C(=O)N[C@@H](Cc2ccccc2)C(=O)N[C@@H](CCCNC(=N)N)C(=O)N[C@@H](CCCNC(=N)N)C(=O)N[C@@H](CCCNC(=N)N)C(N)=O)NC(=O)[C@H](CC(C)C)NC(=O)[C@H](CC(C)C)NC(=O)[C@H](CCC(N)=O)NC1=O [sTIP-09] (Ac-KKRYSR[S5]QLL[S5]FRRR-NH2; staple 7-11) | 
2.3 ± 0.9 × 10^7 M^–1 s^–1 | 21.9 ± 3.8 nM | 4.6 ± 1.2 × 10^–1 s^–1 |  | 2.3 ± 0.6 s |  |  |  | Ac-KRYSR*QLL*F-NH2 (sidechain bridge or staple) [sTIP-11, sTIP-05 with K1 deleted] | Binding to eIF4E in words (effect of N-terminal deletion from sTIP-05) ([1]; sequential deletion of the 1KKR3 sequence): little effect on binding
 |  |  |  | 7.1 ± 1.0 s | 420000 ± 1.9e+10 M⁻¹ s⁻¹ | 397 ± 131 nM | 0.14 ± 0.002 s⁻¹ | CC(=O)N[C@@H](CCCNC(=N)N)C(=O)N[C@@H](Cc1ccc(O)cc1)C(=O)N[C@@H](CO)C(=O)N[C@@H](CCCNC(=N)N)C(=O)NC1(C)CCCC=CCCCC(C)(C(=O)N[C@@H](Cc2ccccc2)C(N)=O)NC(=O)[C@H](CC(C)C)NC(=O)[C@H](CC(C)C)NC(=O)[C@H](CCC(N)=O)NC1=O (some centres unmarked) [sTIP-12] (Ac-RYSR[ξαMeNle(6-ylidene)]QLL[ξαMeNle(6-ylidene)]F-NH2; staple 5-9) | 
 |  |  | 39 s | 39.7 ± 3.1 s | 6.6e+06 ± 1e+11 M⁻¹ s⁻¹ | 4.3 ± 0.4 nM | 0.026 ± 5e-05 s⁻¹ | CC(=O)N[C@@H](CCCCN)C(=O)N[C@@H](CCCCN)C(=O)N[C@@H](CCCNC(=N)N)C(=O)N[C@@H](Cc1ccc(O)cc1)C(=O)N[C@@H](CO)C(=O)N[C@@H](CCCNC(=N)N)C(=O)N[C@@H](CCC(=O)O)C(=O)N[C@@H](CCC(N)=O)C(=O)N[C@@H](CC(C)C)C(=O)N[C@@H](CC(C)C)C(=O)N[C@@]1(C)CCCC=CCCC[C@@](C)(C(N)=O)NC(=O)[C@H](CCCNC(=N)N)NC(=O)[C@H](CCC(N)=O)NC(=O)[C@H](Cc2ccccc2)NC1=O [sTIP-10] (Ac-KKRYSREQLL[S5]FQR[S5]-NH2; staple 11-15) | 
4.2 ± 2.3 × 10^6 M^–1 s^–1 | 54.8 ± 6.4 nM | 2.4 ± 1.5 × 10^–1 s^–1 |  | 6.7 ± 4.1 s |  |  |  | Ac-RYSREQLL*FQR*-NH2 (sidechain bridge or staple) [sTIP-15] | Kd [1, 4]: 54 nM; Improvement in KD over sTIP-12 ([1]; relative to sTIP-12): 7 fold; Improvement in rate of association (kon) over sTIP-12 ([1]; relative to sTIP-12): 10 fold
